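Test compounds were applied to cells in 96-well plates for 48 hours at 5 doses. GI50 marks 50% less growth. The concentration for full growth arrest is given as TGI.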 Some results are limits rather than exact numbers.

Consider seven compounds from PubChem BioAssay (NCI).

Test systems include BT-549 breast; HCT-15 colon; MALME-3M melanoma; MDA-MB-435; NCI-H226 lung; NCI-H460 lung; NCI-H522 lung; PC-3 prostate; SF-295 CNS; U251 CNS.
Experiment in all cases: NCI anticancer screen, dose series, 48 h

As for `OCc1ncc(-c2ccccc2)s1`, the GI50 in the assay with BT-549 breast, in the assay with HCT-15 colon, with MALME-3M melanoma, in the assay on MDA-MB-435, with NCI-H226 lung and with NCI-H460 lung was over 100 µM throughout. The GI50 with NCI-H522 lung, in the assay with PC-3 prostate, in the assay on SF-295 CNS and with U251 CNS was over 100 µM throughout. Moreover, the TGI in the assay on BT-549 breast, in the assay on HCT-15 colon, in the assay on MALME-3M melanoma, in the assay with MDA-MB-435, with NCI-H226 lung and in the assay with NCI-H460 lung was over 100 µM in each case. The TGI with NCI-H522 lung, in the assay on PC-3 prostate, in the assay on SF-295 CNS and in the assay with U251 CNS was over 100 µM each time.

As to `Cc1ccc(S(=O)(=O)NNC(C[N+](=O)[O-])c2ccccc2)cc1` (stereo not given), the TGI in the assay with BT-549 breast amounted to 34.3 µM; with HCT-15 colon, 39.5 µM; with MALME-3M melanoma, 71.3 µM; in the assay with MDA-MB-435 it was 11.2 µM; with NCI-H226 lung, 90 µM; in the assay with NCI-H460 lung, 45.1 µM. Further, the TGI in the assay on NCI-H522 lung was 44.1 µM; in the assay on PC-3 prostate it was over 100 µM; with SF-295 CNS, 49.2 µM; with U251 CNS it was 60.5 µM.

For the compound `O=C(c1ccccc1)c1ccc(O)c2ncccc12`, the GI50 in the assay on BT-549 breast was 5.96 µM; in the assay with HCT-15 colon, 1.66 µM; with MALME-3M melanoma it was 5.1 µM; in the assay with MDA-MB-435, 6.13 µM; in the assay with NCI-H226 lung it was 9.45 µM; with NCI-H460 lung, 1.75 µM. In addition, the GI50 in the assay on NCI-H522 lung was 2.51 µM; in the assay on PC-3 prostate it was 4.36 µM; with SF-295 CNS, 3.78 µM; with U251 CNS, 5.93 µM. In addition, the TGI in the assay on BT-549 breast was found to be 68.5 µM; in the assay on HCT-15 colon, 25.9 µM; with MALME-3M melanoma it was 46.4 µM; in the assay with MDA-MB-435, 97.5 µM; in the assay on NCI-H226 lung, 41.8 µM; in the assay with NCI-H460 lung, 16.2 µM. The TGI in the assay with NCI-H522 lung was 8.3 µM; in the assay on PC-3 prostate, 97.6 µM; with SF-295 CNS, over 100 µM; in the assay on U251 CNS, 26.2 µM.

With `CN(C)CCCN1c2ccc(O)cc2Sc2ccc(Cl)cc21`, the TGI with BT-549 breast came to 25.2 µM; with HCT-15 colon it was 29 µM; with MALME-3M melanoma, 24 µM; in the assay with MDA-MB-435, 21.1 µM; in the assay on NCI-H226 lung, 24.7 µM; with NCI-H460 lung, 14.5 µM. Moreover, the TGI in the assay with NCI-H522 lung is 25.3 µM; with PC-3 prostate, 18 µM; in the assay on SF-295 CNS it was 29 µM; in the assay with U251 CNS, 21.6 µM.

As for `CC(=O)[O][Hg][CH2]C1(C)COC(C)([CH2][Hg][O]C(C)=O)CO1` (stereo not given), the GI50 was 1.76 µM in the assay on BT-549 breast; 0.432 µM with HCT-15 colon; 4.66 µM with MALME-3M melanoma; 2.72 µM in the assay on MDA-MB-435; 6.16 µM in the assay on NCI-H226 lung; 15.7 µM with NCI-H460 lung. In addition, the GI50 in the assay on NCI-H522 lung is 12.1 µM; with PC-3 prostate it was 16.6 µM; with SF-295 CNS, 3.62 µM; with U251 CNS, 1.44 µM. In addition, the TGI was 3.64 µM in the assay on BT-549 breast; 0.9 µM in the assay with HCT-15 colon; 9.23 µM in the assay with MALME-3M melanoma; 7.18 µM with MDA-MB-435; 14.2 µM in the assay with NCI-H226 lung; 40.4 µM with NCI-H460 lung. For the same compound, the TGI with NCI-H522 lung stood at 33 µM; in the assay on PC-3 prostate, 37.5 µM; with SF-295 CNS it was 8.44 µM; with U251 CNS, 2.79 µM.

On to `CNC(C)[C@H]1CCC2C3CCC4C[C@@H](N(C)C(=O)c5ccccc5)CC[C@]4(C)C3CC[C@@]21C` (stereo not given in full), for which the GI50 is 2.26 µM in the assay with BT-549 breast; 0.407 µM in the assay on HCT-15 colon; 1.6 µM with MALME-3M melanoma; 0.632 µM with MDA-MB-435; 2.01 µM in the assay on NCI-H226 lung; 0.732 µM with NCI-H460 lung. The GI50 in the assay with NCI-H522 lung was 2.32 µM; in the assay with PC-3 prostate it was 0.969 µM; with SF-295 CNS, 1.25 µM; with U251 CNS, 1.25 µM. Besides, the TGI turned out to be 8.35 µM in the assay on BT-549 breast; 2.19 µM with HCT-15 colon; 3.99 µM with MALME-3M melanoma; 2.42 µM in the assay with MDA-MB-435; 12.9 µM with NCI-H226 lung; 2.33 µM with NCI-H460 lung. The TGI with NCI-H522 lung was 8.5 µM; with PC-3 prostate it was 3.52 µM; in the assay with SF-295 CNS, 3.36 µM; in the assay with U251 CNS, 5.4 µM.

On to `Clc1ccc(-c2nc(C(Cl)Cl)nc3cc(-c4ccccc4)nn23)cc1`, for which the GI50 is over 50 µM in the assay with BT-549 breast; 1.3 µM in the assay with HCT-15 colon; 2 µM with MALME-3M melanoma; 1.8 µM with MDA-MB-435; over 50 µM with NCI-H226 lung; 0.787 µM in the assay with NCI-H460 lung. Also, the GI50 in the assay on NCI-H522 lung is 1.52 µM; in the assay with PC-3 prostate it was 1.74 µM; in the assay on SF-295 CNS it was 1.45 µM; with U251 CNS it was 1.12 µM. In addition, the TGI in the assay on BT-549 breast was over 50 µM; with HCT-15 colon, over 50 µM; with MALME-3M melanoma it was over 50 µM; in the assay on MDA-MB-435, over 50 µM; in the assay with NCI-H226 lung, over 50 µM; in the assay with NCI-H460 lung it was 2.15 µM. The TGI with NCI-H522 lung, with PC-3 prostate, in the assay on SF-295 CNS and with U251 CNS was over 50 µM each time.
